Reference: ChEMBL document CHEMBL3091456, “Chemical Probe Identification Platform for Orphan GPCRs Using Focused Compound Screening: GPR39 as a Case Example” (ACS Med Chem Lett, 2013)
Active and inactive are the calls of the source. The rule behind the calls is not given here.

Columns and labels:
[1] = Apparent permeability of the compound; format: physicochemical; details: not told
[2] = target: T1, G-protein coupled receptor 39 (Homo sapiens, UniProt O43194); experiment: Agonist activity at recombinant human GPR39 expressed in CHO-K1 cells assessed as increase of Zn2+-induced cAMP production preincubated for 30 mins measured after 60 mins; format: functional, cell-based
T1 sequence (O43194 whole entry): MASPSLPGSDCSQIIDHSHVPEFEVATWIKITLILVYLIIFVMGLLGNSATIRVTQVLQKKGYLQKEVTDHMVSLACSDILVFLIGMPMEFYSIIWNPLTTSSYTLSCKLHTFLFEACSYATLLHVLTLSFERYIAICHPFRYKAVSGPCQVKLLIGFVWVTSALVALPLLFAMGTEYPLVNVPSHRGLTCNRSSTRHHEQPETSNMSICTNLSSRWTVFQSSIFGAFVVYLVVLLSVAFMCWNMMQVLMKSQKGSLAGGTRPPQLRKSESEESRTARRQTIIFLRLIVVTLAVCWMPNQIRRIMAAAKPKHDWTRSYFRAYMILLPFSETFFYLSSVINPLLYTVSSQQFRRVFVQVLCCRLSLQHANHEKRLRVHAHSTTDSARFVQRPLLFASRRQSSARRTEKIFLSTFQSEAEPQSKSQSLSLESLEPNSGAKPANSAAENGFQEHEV

[3] = target: T1, G-protein coupled receptor 39; experiment: Agonist activity at recombinant human GPR39 expressed in CHO-K1 cells assessed as increase of Zn2+-induced intracellular Ca+2 mobilization after 1 hr by Fluo-4 No staining-based FLIPR assay; format: cell-based
[4] = target: T2, G-protein coupled receptor 39 (Homo sapiens) (UniProt O43194); experiment: Agonist activity at GPR39 in human HT-29 cells assessed as cAMP accumulation up to 30 uM; format: functional, cell-based
T2 sequence (whole entry): T1 sequence (O43194 whole entry)

[5] = target: T2, G-protein coupled receptor 39 (Homo sapiens); experiment: Agonist activity at GPR39 in human HT-29 cells assessed as intracellular Ca2+ mobilization up to 30 uM after 72 hrs by FLIPR assay; format: functional, cell-based
[6] = target: T2, G-protein coupled receptor 39 (Homo sapiens); experiment: Agonist activity at recombinant human GPR39 expressed in CHO-K1 cells assessed as increase of Zn2+-induced cAMP production preincubated for 30 mins measured after 60 mins relative to Zn+2; format: functional, cell-based
[7] = target: T2, G-protein coupled receptor 39 (Homo sapiens); experiment: Agonist activity at recombinant human GPR39 expressed in CHO-K1 cells assessed as increase of Zn2+-induced intracellular Ca+2 mobilization after 1 hr by Fluo-4 No staining-based FLIPR assay relative to Zn+2; format: cell-based
[8] = target: T3, Protein Gpr39 (Rattus norvegicus) (UniProt A6QR73); experiment: Agonist activity at GPR39 in rat INS-1 cells assessed as effect on glucose-stimulated insulin secretion; format: cell-based; details: INS1
T3 sequence (whole entry): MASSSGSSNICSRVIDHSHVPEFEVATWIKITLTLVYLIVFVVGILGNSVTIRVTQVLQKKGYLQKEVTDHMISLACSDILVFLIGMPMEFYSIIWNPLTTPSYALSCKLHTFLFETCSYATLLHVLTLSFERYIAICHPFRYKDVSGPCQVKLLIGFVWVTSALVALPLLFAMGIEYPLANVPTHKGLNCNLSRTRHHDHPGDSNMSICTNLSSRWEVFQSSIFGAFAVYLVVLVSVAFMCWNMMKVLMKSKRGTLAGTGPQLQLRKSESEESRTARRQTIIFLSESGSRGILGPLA

[9] = target: T2, G-protein coupled receptor 39 (Homo sapiens); experiment: Agonist activity at GPR39 in human islets assessed as 11.2 mM glucose-stimulated insulin secretion up to 10 uM after 1 hr
[10] = target: T2, G-protein coupled receptor 39 (Homo sapiens); experiment: Agonist activity at GPR39 in human islets assessed as 2.8 mM glucose-stimulated insulin secretion up to 10 uM after 0.75 hrs
[11] = target: T2, G-protein coupled receptor 39 (Homo sapiens); experiment: Agonist activity at GPR39 in human HT-29 cells assessed as cAMP accumulation; format: functional, cell-based
[12] = target: T2, G-protein coupled receptor 39 (Homo sapiens); experiment: Agonist activity at GPR39 in human HT-29 cells assessed as intracellular Ca2+ mobilization after 72 hrs by FLIPR assay in presence of siRNA; format: functional, cell-based
[13] = target: T1, G-protein coupled receptor 39; experiment: Agonist activity at GPR39 in human HT-29 cells assessed as increase in intracellular Ca2+ mobilization after 72 hrs by FLIPR assay; format: functional, cell-based
[14] = target: cGMP-inhibited 3',5'-cyclic phosphodiesterase 3B (Homo sapiens, UniProt Q13370); experiment: Inhibition of PDE3B (unknown origin)
cGMP-inhibited 3',5'-cyclic phosphodiesterase 3B, sequence (Q13370 whole entry): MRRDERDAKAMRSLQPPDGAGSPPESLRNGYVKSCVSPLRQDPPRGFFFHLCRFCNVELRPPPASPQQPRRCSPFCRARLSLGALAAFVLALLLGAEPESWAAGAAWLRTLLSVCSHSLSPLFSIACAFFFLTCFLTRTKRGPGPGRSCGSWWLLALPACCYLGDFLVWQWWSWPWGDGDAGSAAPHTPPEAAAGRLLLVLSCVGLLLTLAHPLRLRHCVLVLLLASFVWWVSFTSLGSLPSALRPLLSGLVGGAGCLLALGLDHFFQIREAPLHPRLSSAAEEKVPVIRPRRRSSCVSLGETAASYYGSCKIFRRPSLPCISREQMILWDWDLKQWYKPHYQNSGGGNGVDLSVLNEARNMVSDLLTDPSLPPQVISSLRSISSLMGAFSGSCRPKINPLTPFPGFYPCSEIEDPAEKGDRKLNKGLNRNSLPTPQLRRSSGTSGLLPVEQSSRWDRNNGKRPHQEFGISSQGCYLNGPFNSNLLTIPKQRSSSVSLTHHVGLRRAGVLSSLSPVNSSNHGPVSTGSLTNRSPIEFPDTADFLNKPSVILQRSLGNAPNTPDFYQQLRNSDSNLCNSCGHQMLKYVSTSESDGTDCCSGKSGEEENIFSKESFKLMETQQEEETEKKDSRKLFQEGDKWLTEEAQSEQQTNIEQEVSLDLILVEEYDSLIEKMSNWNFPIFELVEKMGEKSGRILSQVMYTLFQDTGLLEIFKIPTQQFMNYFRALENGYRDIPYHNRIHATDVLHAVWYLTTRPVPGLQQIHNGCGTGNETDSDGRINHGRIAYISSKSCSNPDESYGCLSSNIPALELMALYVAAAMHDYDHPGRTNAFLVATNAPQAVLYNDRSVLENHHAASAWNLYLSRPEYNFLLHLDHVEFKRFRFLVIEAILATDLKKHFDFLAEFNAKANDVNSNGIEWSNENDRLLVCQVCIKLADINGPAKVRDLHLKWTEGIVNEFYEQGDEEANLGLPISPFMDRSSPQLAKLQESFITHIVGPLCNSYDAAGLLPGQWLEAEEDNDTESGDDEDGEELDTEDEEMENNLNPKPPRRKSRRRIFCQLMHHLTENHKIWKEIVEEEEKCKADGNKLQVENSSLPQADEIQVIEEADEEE

[15] = target: cGMP-inhibited 3',5'-cyclic phosphodiesterase 3A (Homo sapiens, UniProt Q14432); experiment: Inhibition of PDE3a (unknown origin)
cGMP-inhibited 3',5'-cyclic phosphodiesterase 3A, sequence (Q14432 whole entry): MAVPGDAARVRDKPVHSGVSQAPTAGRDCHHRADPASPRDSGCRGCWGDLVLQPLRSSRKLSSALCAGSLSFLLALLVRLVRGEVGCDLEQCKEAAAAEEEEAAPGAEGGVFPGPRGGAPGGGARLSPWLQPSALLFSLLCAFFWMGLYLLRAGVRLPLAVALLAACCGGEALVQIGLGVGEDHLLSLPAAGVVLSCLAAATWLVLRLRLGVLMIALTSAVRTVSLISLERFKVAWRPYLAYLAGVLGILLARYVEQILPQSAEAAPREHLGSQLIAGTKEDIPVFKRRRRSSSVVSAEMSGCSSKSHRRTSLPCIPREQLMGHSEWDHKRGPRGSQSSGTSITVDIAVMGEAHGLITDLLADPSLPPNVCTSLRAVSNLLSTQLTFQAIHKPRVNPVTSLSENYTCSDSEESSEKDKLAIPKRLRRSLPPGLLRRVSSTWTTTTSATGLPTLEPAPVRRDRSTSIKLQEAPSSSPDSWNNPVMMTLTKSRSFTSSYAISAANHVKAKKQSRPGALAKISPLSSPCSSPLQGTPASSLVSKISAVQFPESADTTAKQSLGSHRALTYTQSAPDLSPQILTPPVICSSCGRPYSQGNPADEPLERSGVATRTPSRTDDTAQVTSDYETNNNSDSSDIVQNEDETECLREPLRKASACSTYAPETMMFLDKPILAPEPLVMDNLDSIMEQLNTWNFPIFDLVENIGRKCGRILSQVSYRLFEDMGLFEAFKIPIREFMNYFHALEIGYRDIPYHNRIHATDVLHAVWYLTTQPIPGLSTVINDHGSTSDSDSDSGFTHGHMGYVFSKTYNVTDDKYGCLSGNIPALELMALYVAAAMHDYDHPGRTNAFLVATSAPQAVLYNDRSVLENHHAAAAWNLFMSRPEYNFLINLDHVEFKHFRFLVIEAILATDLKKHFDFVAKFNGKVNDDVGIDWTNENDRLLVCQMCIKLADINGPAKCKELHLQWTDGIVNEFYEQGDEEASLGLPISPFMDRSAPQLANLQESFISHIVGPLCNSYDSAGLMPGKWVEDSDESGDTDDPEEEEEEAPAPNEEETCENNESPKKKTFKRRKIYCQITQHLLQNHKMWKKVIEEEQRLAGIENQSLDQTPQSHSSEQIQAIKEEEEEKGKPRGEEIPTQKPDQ

[16] = Apparent permeability across MDCK cells; format: ADME, cell-based, Canis lupus familiaris; details: dog

Structure (SMILES) | Papp [1] [×10⁻⁶ cm/s] | EC50 [2] [nM] | EC50 [3] [nM] | Activity [4] | Activity [5] | Efficacy [6] [%] | Efficacy [7] [%] | other results
CCc1ncc(CN2C[C@@H](C(=O)NCc3ccccc3Cl)[C@H](c3cccnc3)C2)[nH]1 | 0.8 | 840 | 190 |  |  |  |  | 
N#Cc1ccc(N2CCN(Cc3cn4cc(Cl)ccc4n3)CC2)nc1 |  | 12000 | 56 |  |  | 100 | 76 | Activity [8]: inactive; Activity [9]: inactive; Activity [10]: inactive; Activity [11]: inactive; Activity [12]: inactive; EC50 [13]: 900 nM; IC50 [14]: 24000 nM; IC50 [15]: 15000 nM; Papp [16]: 7.6 ×10⁻⁶ cm/s
COc1cccc([C@@H]2CCN(CCc3ccccc3)C[C@H]2C(=O)NCCc2ccccn2)c1 (racemic) | 3.1 | 4500 | 3100 |  |  | 107 | 82 | 

Second part, led by results:

Papp [1] [×10⁻⁶ cm/s] | EC50 [2] [nM] | EC50 [3] [nM] | Activity [4] | Activity [5] | Efficacy [6] [%] | Efficacy [7] [%] | Structure (SMILES) | other results
 |  |  | inactive | inactive | 107 | 66 | CCc1nc(CN2C[C@H](C(=O)NCc3ccccc3Cl)[C@@H](c3cccnc3)C2)c[nH]1 | 
 |  |  | inactive | inactive | 99 | 74 | CCc1nc(CN2C[C@@H](C(=O)NCc3ccccc3Cl)[C@H](c3cccnc3)C2)c[nH]1 | 
1.2 | 310 | 320 |  |  |  |  | CCc1ncc(CN2C[C@H](C(=O)NCc3ccccc3Cl)[C@@H](c3cccnc3)C2)[nH]1 | 
